Patent US20230203156A1, “ANTI-MDR1 ANTIBODIES AND USES THEREOF” (KENJOCKETY BIOTECHNOLOGY, INC., priority 2020, published 2023)
Read-outs that look alike come from different tables or passages of the source.

Columns and labels:
[1] = test system: MES-SA DX5 uterine sarcoma; assay: MES-SA DX5 drug-resistant uterine sarcoma model in nude mice; format: in vivo; conditions: MES-SA DX5 tumors in vivo
Method: Anti-ABCB1 antibodies B1.129, B1.261, B1.223, B1.225, B1.188, B1.28, and B1.226 were tested for effect on growth of tumors in immunodeficient mice. The following cancer cell lines were used for generating tumor models.
MES-SA DX5: The multi drug-resistant cell line MES-SA/Dx5 (Sigma. 95051031) was derived from the human uterine sarcoma cell line MES-SA (Sigma Catalogue number. 95051030) which was originally obtained from a tumour from a person at the time of hysterectomy. […] Cross resistance to bleomycin, cisplatin, carmustine, 5-fluorouracil or methotrexate was not observed.
Nude mice were implanted with MES-SA DX5 cells to model uterine sarcoma. Anti-B1 monoclonal antibodies are efficacious in MES-SA DX5 uterine sarcoma model in nude mice.

[2] = test system: human MDR1 extracellular loops 1 and 4 (ECD1, ECD4); assay: Epitope mapping with mutant human MDR1 expressed on 293T cells (flow cytometry); format: binding; conditions: mutant versus WT human ABCB1; preliminary epitope mapping
Text: To determine binding of anti-MDR1 mAbs listed in Table 2 to the two major extracellular loops 1 and 4 of MDR1, various mutations were constructed to alter or substitute these two loops. To examine binding to cynomolgus extracellular loops, the extracellular loop 1 and/or loop 4 of cynomolgus MDR1 were grafted (with a C-terminal FLAG tag) to substitute for the human loops in the human MDR1 using standard techniques. To examine binding dependence on the normal human loops, MDR1 variants with deletion 79-102 and deletion 82-99 in loop 1 were also generated. Loop 1 is also referred to as ECD1. Loop 4 is also referred to as ECD4. These mutant MDR1 efflux pump variants were expressed on 293T cells using standard methods to generate cells that could be used to distinguish binding of various anti-MDR1 mAbs. The different cells were incubated with different anti-MDR1 mAbs for about 1 hour at 4° C. The cells were washed twice with FACS buffer (PBS containing 0.5% BSA). Alexa647 labeled goat anti-human antibody was added as a secondary antibody, and the samples were incubated on ice for another 1 hour. Samples were washed again and analyzed by flow cytometry.
FIG. 9 summarizes the findings from preliminary epitope mapping using mutant human MDR1. […] For example, anti-MDR1 mAb B1.129 requires ECD1 and ECD4 for binding to human MDR1. All of the anti-MDR1 antibodies contact ECD4. […] ECD1 refers to the first extracellular domain of human ABCB1, ECD4 refers to the fourth extracellular domain of human ABCB1 and “others” refers to the remainder of the extracellular domains 2-3 and 5-6 of human ABCB1. Only binding to ECD1 and ECD4 was tested.

N6/ADR cells = assay: Vincristine cytotoxicity assay on N6/ADR cells (CellTiter-Glo); format: cell-based, human; conditions: for IC50: Homo sapiens
Method: (§1) The effect of antibodies on vincristine cytotoxicity was evaluated on N6/ADR, a doxorubicin-selected, ABCB1-positive variant of the human acute lymphoblastic leukemia (ALL) cell line, NALM6. Cells were plated in 0.05 mL of Assay Media (RPMI-1640 +10% FBS) at 5000 cells/well in white flat bottom 96-well tissue culture plates. Vincristine was prepared at 2X final assay concentration by serial dilution from 200 uM in assay media containing test antibodies or control antibodies at 100 ug/mL (2X final concentration), or valspodar, a small molecule KPB1 inhibitor at 7 uM (2X final concentration). An equivalent volume (0.05 mL) of the vincristine/antibody mixture was added to the N6/ADR cells in 96-well plates. The plates were then incubated at 37° C., in 5% CO2. After 72 hr plates were equilibrated to room temperature and cell viability assessed using Promega® CellTiter-Glo® Luminescent Cell Viability Assay according to the manufacturer’s recommended protocol. Luminescence was measured on a Molecular Devices® FlexStation® 3 Multi-Mode Microplate Reader and data analyzed using GraphPad Prism 8.0 software.
as §1, with “Cytotoxicity Assays. The effect” for “The effect”, “a doxorubicin-selected, B1-positive variant of” for “a doxorubicin-selected, ABCB1-positive variant of”, “small molecule B1 inhibitor at” for “small molecule KPB1 inhibitor at”, “8.0 software. Half maximal inhibitory concentration (IC50) is the concentration of drug (vincristine or other chemotherapy cytotoxic agent) where the response (cell growth) is reduced by 50%.” for “8.0 software.”

human MDR1 = molecular target: T1, human MDR1 (Homo sapiens, UniProt P08183); assay: Efflux blockade of MDR1 fluorescent substrates (flow cytometry); format: cell-based
T1 construct: expressed in transfected cells
Method: HEK 293T cells expressing human MDR1 or MES-SA/DX5 cells expressing human MDR1 were washed several times and aliquoted into 96-well plates as 50 µl aliquots/well at a cell density of 1 x 10e6 cells per ml in phenol red-free DMEM. Cells were mixed with 300 nM to 1 nM antibodies and incubated for 1 h at 37° C. To determine efflux blockade cells were incubated in the presence of B1 fluorescent substrates as follows: 0.6 µM Rhodamine; 5 µM […] (DiOC2(3)) or 0.6 µM Calcein AM for 1.5 h at 37° C. The cells were then washed twice and finally resuspended in […] PBS. Rhodamine, DiOC2(3) or Calcein AM fluorescence were measured by flow cytometry.
Effect of anti-MDR1 antibodies on efflux of MDR1 substrates Calcein, DIOC2, and Rhodamine was assessed as described in efflux blockade experimental procedure.

[3] = test system: DX5-B1 KO uterine sarcoma; assay: Uterine sarcoma formed from MES-SA DX5 cells lacking ABCB1 expression (DX5-B1 KO); format: in vivo

## 15D3: anti-ABCB1 antibody known as 15D3; VH SEQ ID NO:287, VL SEQ ID NO:284 [reference compound]
[1]
  sensitization of MES-SA DX5 uterine sarcoma to paclitaxel: did not sensitize
[2]
  ECD1 required for antibody binding to human ABCB1: do not require
  ECD4 required for antibody binding to human ABCB1: bind to an epitope that includes ECD4 sequences
N6/ADR cells; N6/ADR cells
  potentiation of vincristine mediated cytotoxicity: did not potentiate
Human MDR1; 293T.hB1 cell line
  inhibition of efflux of DIOC2: no observable effect
  inhibition of efflux of Rhodamine: low inhibition
Human MDR1; MES-SA/Dx5 cells
  inhibition of efflux of DIOC2: no observable effect
  inhibition of efflux of Rhodamine: no effect

## CC[C@]1(O)C[C@H]2CN(CCc3c([nH]c4ccccc34)[C@@](C(=O)OC)(c3cc4c(cc3OC)N(C=O)[C@H]3[C@@](O)(C(=O)OC)[C@H](OC(C)=O)[C@]5(CC)C=CCN6CC[C@]43[C@@H]65)C2)C1 [Vincristine, vincristine]
N6/ADR cells; 72 h, read-out: IC50 (pM), cytotoxicity to N6/ADR cells by vincristine
  IC50: 4120 pM
N6/ADR cells; IC50 of vincristine alone or with antibody, N6/ADR cells, 72 hr, read-out: IC50 (nM), vincristine cytotoxicity
  IC50: 543 pM

## CC(=O)O[C@H]1C(=O)[C@@]2(C)[C@H]([C@H](OC(=O)c3ccccc3)[C@]3(O)C[C@H](OC(=O)[C@H](O)[C@@H](NC(=O)c4ccccc4)c4ccccc4)C(C)=C1C3(C)C)[C@]1(OC(C)=O)CO[C@@H]1C[C@@H]2O [paclitaxel]
[3]
  sensitivity of tumor to paclitaxel: sensitive

## KPA08: anti-ABCB1 antibody with two heavy chains from 15D3 and two light chains from MRK16 [reference compound]
[2]
  ECD1 required for antibody binding to human ABCB1: do not require
  ECD4 required for antibody binding to human ABCB1: bind to an epitope that includes ECD4 sequences

## MRK16: anti-ABCB1 antibody known as MRK16; VH SEQ ID NO:286, VL SEQ ID NO:283
N6/ADR cells; N6/ADR cells
  potentiation of vincristine mediated cytotoxicity: did not potentiate
